Reference: ChEMBL document CHEMBL1134412, “(4-Piperidin-1-yl)phenyl amides: potent and selective human beta(3) agonists” (J Med Chem, 2001)

Legend:
[1] = target: T1, Beta-3 adrenergic receptor (Homo sapiens, UniProt P13945); assay: In vitro increase in cAMP levels in Chinese hamster ovary cells expressing the human cloned beta 3 Adrenergic receptor.; format: functional, cell-based
Target sequence in this assay (P13945 whole entry): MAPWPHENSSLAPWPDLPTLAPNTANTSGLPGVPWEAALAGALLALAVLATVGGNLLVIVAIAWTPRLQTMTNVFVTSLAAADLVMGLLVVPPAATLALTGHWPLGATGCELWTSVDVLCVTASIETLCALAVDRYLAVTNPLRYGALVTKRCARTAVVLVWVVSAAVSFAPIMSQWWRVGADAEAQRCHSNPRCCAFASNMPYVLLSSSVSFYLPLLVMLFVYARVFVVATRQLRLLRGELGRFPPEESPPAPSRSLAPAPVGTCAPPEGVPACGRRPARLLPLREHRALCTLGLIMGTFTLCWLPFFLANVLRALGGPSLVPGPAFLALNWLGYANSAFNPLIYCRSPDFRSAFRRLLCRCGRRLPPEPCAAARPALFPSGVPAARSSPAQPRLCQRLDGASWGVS

[2] = target: T2, Beta-2 adrenergic receptor (Homo sapiens, UniProt P07550); assay: Increased cAMP levels of Chinese hamster ovary (CHO) cells expressing human beta 2 adrenergic receptors; format: functional, cell-based
Target sequence in this assay (P07550 whole entry): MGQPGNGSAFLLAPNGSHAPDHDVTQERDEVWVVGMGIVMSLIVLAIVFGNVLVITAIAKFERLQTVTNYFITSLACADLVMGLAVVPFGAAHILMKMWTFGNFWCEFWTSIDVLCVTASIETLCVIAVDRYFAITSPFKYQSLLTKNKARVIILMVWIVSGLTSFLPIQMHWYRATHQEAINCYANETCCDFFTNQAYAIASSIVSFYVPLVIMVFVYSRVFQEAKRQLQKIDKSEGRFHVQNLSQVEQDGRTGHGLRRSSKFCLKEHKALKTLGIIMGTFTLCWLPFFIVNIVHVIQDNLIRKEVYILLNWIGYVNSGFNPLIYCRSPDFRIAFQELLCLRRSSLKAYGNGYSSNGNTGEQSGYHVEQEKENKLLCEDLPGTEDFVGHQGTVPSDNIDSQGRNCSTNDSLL

[3] = target: T3, Beta-1 adrenergic receptor (Homo sapiens, UniProt P08588); assay: Increased cAMP levels of Chinese hamster ovary (CHO) cells expressing human beta 1 Adrenergic receptor; format: functional, cell-based
Target sequence in this assay (P08588 whole entry): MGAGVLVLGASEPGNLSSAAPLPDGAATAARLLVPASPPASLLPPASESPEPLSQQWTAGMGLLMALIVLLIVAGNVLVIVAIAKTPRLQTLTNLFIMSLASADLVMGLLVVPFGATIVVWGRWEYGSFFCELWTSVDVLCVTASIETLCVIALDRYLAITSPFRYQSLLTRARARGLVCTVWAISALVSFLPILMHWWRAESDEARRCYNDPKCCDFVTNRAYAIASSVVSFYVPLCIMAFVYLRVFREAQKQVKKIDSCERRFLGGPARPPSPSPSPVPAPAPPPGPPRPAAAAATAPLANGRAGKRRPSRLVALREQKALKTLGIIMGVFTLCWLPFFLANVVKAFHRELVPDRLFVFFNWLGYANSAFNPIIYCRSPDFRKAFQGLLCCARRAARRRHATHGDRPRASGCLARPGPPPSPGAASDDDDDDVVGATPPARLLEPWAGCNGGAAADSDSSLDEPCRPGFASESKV

[4] = target: T1, Beta-3 adrenergic receptor; assay: Compound was tested for increased thermogenesis using beta-3 human transgenic mice
Target sequence in this assay (P13945 whole entry, looked up): as the sequence (P13945 whole entry) above

[5] = target: T3, Beta-1 adrenergic receptor; assay: In vitro activity to increase cAMP levels in Chinese hamster ovary (CHO) cells expressing the cloned human beta 1 Adrenergic receptor; format: cell-based
Target sequence in this assay (P08588 whole entry): as the sequence (P08588 whole entry) above

[6] = target: T3, Beta-1 adrenergic receptor; assay: Inhibition of I-iodocyanopindolol binding to human beta 1 adrenergic receptors
Target sequence in this assay (P08588 whole entry): as above

[7] = target: T2, Beta-2 adrenergic receptor
Target sequence in this assay (P07550 whole entry): as the sequence (P07550 whole entry) above
Description: Inhibition of I-iodocyanopindolol binding to human beta 2 adrenergic receptors

[8] = target: T2, Beta-2 adrenergic receptor; assay: Intrinsic activity to increase cAMP levels in Chinese hamster ovary (CHO) cells expressing the cloned human beta 2 adrenergic receptors; format: cell-based
Target sequence in this assay (P07550 whole entry, looked up): as the sequence (P07550 whole entry) above

[9] = target: T3, Beta-1 adrenergic receptor; assay: Intrinsic activity to increase cAMP levels in Chinese hamster ovary (CHO) cells expressing the cloned human beta 1 Adrenergic receptor; format: cell-based
Target sequence in this assay (P08588 whole entry, looked up): as the sequence (P08588 whole entry) above

[10] = target: T1, Beta-3 adrenergic receptor; assay: Intrinsic activity to increase cAMP levels in Chinese hamster ovary (CHO) cells expressing the cloned human beta 3 Adrenergic receptor; format: cell-based
Target sequence in this assay (P13945 whole entry, looked up): as the sequence (P13945 whole entry) above

Row | SMILES | EC50 [1] | EC50 [2] | EC50 [3] | Thermogenesis [4] | EC50 [5] | Ki [6] | Ki [7] | IA [8] | IA [9] | IA [10]
1 | CCCCN(CC(=O)O)C(=O)c1ccc(N2CCC(NC[C@H](O)c3ccc(O)c(NS(C)(=O)=O)c3)CC2)cc1 | 36 nM | 10500 nM | > 1000 nM |  |  |  |  |  |  | 
2 | CS(=O)(=O)Nc1cc([C@@H](O)CNC2CCN(c3ccc(C(=O)N4CCC[C@H]4C(=O)O)cc3)CC2)ccc1O |  | 20 nM |  |  |  |  |  |  |  | 
3 | CCCCCCNC(=O)Nc1ccc(S(=O)(=O)Nc2ccc(CCNC[C@H](O)COc3ccc(O)cc3)cc2)cc1 [L-755507] |  | 20 nM |  | 28% | 330 nM | 0.57 µM | 0.16 µM |  |  | 
4 | CS(=O)(=O)Nc1cc([C@@H](O)CNC2CCN(c3ccc(C(=O)O)cc3)CC2)ccc1O | 220 nM | > 50000 nM |  |  | 48700 nM |  |  |  |  | 
5 | CS(=O)(=O)Nc1cc([C@@H](O)CNC2CCN(c3ccc(COCC(=O)O)cc3)CC2)ccc1O | 66 nM | 6000 nM | 1600 nM |  |  |  |  |  |  | 
6 | CS(=O)(=O)Nc1cc([C@@H](O)CNC2CCN(c3ccc(C(=O)N[C@@H](CCC(=O)O)C(=O)O)cc3)CC2)ccc1O | 92 nM |  |  |  |  |  |  |  |  | 
7 | CC(C)[C@H](NC(=O)c1ccc(N2CCC(NC[C@H](O)c3ccc(O)c(NS(C)(=O)=O)c3)CC2)cc1)C(=O)O | 26 nM | > 10000 nM | > 10000 nM |  |  | > 100 µM | 3.6 µM |  |  | 
8 | CCCCN(c1ccc(N2CCC(NC[C@H](O)c3ccc(O)c(NS(C)(=O)=O)c3)CC2)cc1)S(=O)(=O)CC(=O)O | 4 nM | 5000 nM |  |  | 2000 nM |  |  | 0.45 | 0.51 | 1
9 | CS(=O)(=O)Nc1cc([C@@H](O)CNC2CCN(c3ccc(NC(=O)CC(=O)O)cc3)CC2)ccc1O | 130 nM | 900 nM | 100 nM |  |  |  |  |  |  | 
10 | CCCCN(C(=O)CC(=O)O)c1ccc(N2CCC(NC[C@H](O)c3ccc(O)c(NS(C)(=O)=O)c3)CC2)cc1 | 9 nM | 60 nM | 40 nM | 35% |  | > 100 µM | > 100 µM |  |  | 
11 | CC(C)C[C@H](NC(=O)c1ccc(N2CCC(NC[C@H](O)c3ccc(O)c(NS(C)(=O)=O)c3)CC2)cc1)C(=O)O | 8 nM | 80 nM | 60 nM | 53% |  | > 100 µM | 3.4 µM |  |  | 
12 | CS(=O)(=O)Nc1cc([C@@H](O)CNC2CCN(c3ccc(C(N)=O)cc3)CC2)ccc1O | 20 nM | 270 nM | 1200 nM |  |  |  |  |  |  | 
13 | CS(=O)(=O)Nc1cc([C@@H](O)CNC2CCN(c3ccc(C(=O)N[C@@H](Cc4ccccc4)C(=O)O)cc3)CC2)ccc1O |  | 1500 nM | 43700 nM |  |  | > 100 µM | 0.48 µM |  |  | 
14 | CS(=O)(=O)Nc1cc([C@@H](O)CNC2CCN(c3ccc(CCC(=O)O)cc3)CC2)ccc1O | 39 nM | 4700 nM | 9800 nM |  |  |  |  |  |  | 
15 | CS(=O)(=O)Nc1cc([C@@H](O)CNC2CCN(c3ccc(CC(=O)O)cc3)CC2)ccc1O | 270 nM |  |  |  |  |  |  |  |  | 
16 | CS(=O)(=O)Nc1cc([C@@H](O)CNC2CCN(c3ccc(C(=O)NCCC(=O)O)cc3)CC2)ccc1O | 260 nM |  |  |  |  |  |  |  |  | 
17 | CS(=O)(=O)Nc1cc([C@@H](O)CNC2CCN(c3ccc(C(=O)NCC(=O)O)cc3)CC2)ccc1O | 60 nM | 40 nM | 50 nM | 51% |  | > 100 µM | 11.6 µM |  |  | 
18 | CCOC(=O)CNC(=O)c1ccc(N2CCC(NC[C@H](O)c3ccc(O)c(NS(C)(=O)=O)c3)CC2)cc1 | 15 nM | 3200 nM | 4500 nM |  |  |  |  |  |  | 
